# Source: patent publication US20180353501A1 (Arvinas, Inc., priority 2017, published 2018)
# How the values were obtained:
# Format in all cases: cell-based
# cMET = molecular target: T1, cMET (Homo sapiens, UniProt P08581); assay: Cellular assay of target protein degradation (MDA-MB-231 cells, ELISA)
# T1 construct: endogenous in cells; host or cells: MDA-MB-231
# Procedure: (§1) Protocol of the cellular assay of target protein degradation (MDA-MB-231 cells, ELISA).
# (§2) For detection Cell Signaling PathScan Sandwich ELISA Catalog#12850 was used. MDA-MB-231 cells and […] were cultured in ATCC DMEM+ATCC FBS and plated 40,000/well 100 μl/well in RPMI P/S with 5% CSS Omega (bovine) serum into a 96 well plate. The cells were grown for a minimum of 3 days, dosed with compounds in 0.1% DMSO (diluted with 5% CSS) and incubated with aspiration for 4 hours. 100 μl of 1× Cell Signaling lysis buffer #9803 (36 mL dH2O+4 mL Cell Signaling lysis buffer) was added. The incubation was placed on cold room shaker for 10 minutes at speed 8-9.5 μl to 100 μL of Diluent was transferred to ELISA plate (0.15 μg/mL-0.075 μg/mL) and stored at 4° C. overnight on cold room shaker speed 5 (gentle swirl) and then shaken next morning at 37° C. for 30 minutes. The preparation was washed 4×200 μl with ELISA wash buffer and aspirated with eight-channel aspirator. 100 μl/well of target protein detection antibody was added after, which the preparation was covered and shaken at 37° C. for 1 hour. 100 μl TMB was added, and the mixture was shaken for 5 min while under observation. When TMB turned light blue, 100 μl of Stop solution was added, and the mixture was shaken and read at 450 nm. Also read at 562 nm for background subtraction.
# p38γ = molecular target: T2, p38γ (Homo sapiens, UniProt P53778); assay: Western blot MAPK family degradation selectivity, MDA-MB-231 cells; settings: increasing concentrations
# T2 construct: with increasing concentrations of exemplary compound 50 and 46 in MDA-MB-231 cells; endogenous in cells; host or cells: MDA-MB-231
# T2 sequence (P53778 whole entry): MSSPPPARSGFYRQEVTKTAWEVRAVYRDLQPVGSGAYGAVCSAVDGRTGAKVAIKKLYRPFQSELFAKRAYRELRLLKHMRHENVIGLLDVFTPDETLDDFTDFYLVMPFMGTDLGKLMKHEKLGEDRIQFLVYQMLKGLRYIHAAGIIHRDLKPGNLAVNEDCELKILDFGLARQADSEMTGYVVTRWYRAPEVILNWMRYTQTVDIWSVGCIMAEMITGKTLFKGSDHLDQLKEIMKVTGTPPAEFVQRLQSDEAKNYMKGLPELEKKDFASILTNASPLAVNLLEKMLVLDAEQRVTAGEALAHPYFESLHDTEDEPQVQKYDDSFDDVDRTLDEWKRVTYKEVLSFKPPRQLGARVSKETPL
# Source text: (§3) FIGS. 12A, 12B, and 12C. Characterization of MAPK family degradation selectivity (related to FIGS. 9A, 9B, 9C, 13A, 13B, 13C, and 13D). (A) p38 MAPK family members (α, β, δ, γ) were aligned using the T-Coffee multiple sequence alignment server. Output results were then colored according to conservation (dark turquoise) and identity (lighter shades of turquoise) in Jalview. (B) Table summarizing pairwise sequence alignments (obtained in Jalview) and structural alignments for Ca atoms (obtained in PyMOL) using the doublyphosphorylated (pTGpY) active conformations of p38δ (PDB: 4MYG), p38α (PDB: 3PY3), and p38γ (PDB: 1CM8). No active conformation crystal structure of p38β currently exists. […] MAPK families are also divided based on their phosphorylation lip motif, (pTxpY). Note: JNK1 and JNK2 are expressed as two alternatively-spliced forms. JNK3 was not expressed in these cells.
# (§4) To address the mechanistic questions surrounding PROTAC substrate specificity was assessed by synthesizing eight foretinib-based PROTACs that vary by linker length and by orientation of the VHL-recruiting molecule. PROTACs 1 and 48-50 (termed the ‘amide series’) were constructed using the previously-characterized “left-hand side” amide as a connection point for linker attachment to the VHL ligand, while PROTACs 5 and 45-47 (termed the ‘phenyl series’) incorporated an under-explored “right-hand side” phenyl ring attachment point of the linker to the VHL ligand (FIGS. 9A and 9B). […] PROTACs synthesized with different linker lengths, using two different points of attachment to the VHL-recruiting ligand promote distinct E3 ligase interfaces with a given p38 isoform, thereby enabling potential degradation selectivity. Indeed, this strategy of differential orientation of recruited VHL coupled with different PROTAC linker lengths enabled the identification of two PROTACs that each selectively degrade only a single p38 MAPK isoform in MDA-MB-231 cells (FIG. 9C). The examplary compound 50 and exemplary compound 46 result in potent and selective degradation of p38α and p38δ, respectively, without an observable “hook effect” within the tested dose range. […] Crucially, the DC50 for exemplary compound 50 on p38δ is >5 μM, as is the DC50 of exemplary compound 46 for p38α. Additionally, neither exemplary PROTAC degrades either of the two remaining p38 MAPK isoforms (β and γ), despite high sequence and structural conservation.
# (§5) Lysates from MDA-MB-231 cells were washed once with ice cold PBS (1×), followed by lysis in buffer containing 25 mM Tris [pH 7.5], 0.25% sodium deoxycholate, 1% Triton X-100, supplemented with 1× protease inhibitor cocktail (Roche) and phosphatase inhibitors (10 mM NaF, 1 mM Na3VO4, and 20 mM β-glycerophosphate), unless otherwise noted. Lysates were spun at 14,000×g for 10 minutes at 4° C. and supernatant was evaluated for protein content using a Pierce BCA Protein Assay (Thermo Fisher Scientific). 25 to 50 μg of protein was loaded onto 10% SDS-PAGE gels or 4-20% Criterion TGX precast gradient gels (Bio-Rad), transferred to nitrocellulose membranes, and probed with the specified antibodies overnight at 4° C. in 1×TBS-Tween (Tris buffered saline plus 0.02% Tween 20) containing 5% non-fat milk. Immunoblots were visualized using a Bio-Rad ChemiDoc imaging instrument and subsequently processed and quantified using the accompanying Bio-Rad ImageLab software.
# JNK1 = assay: as above; settings: increasing concentrations
# Source text: as §3, §4, §5
# ERK1 = molecular target: T3, ERK1 (Homo sapiens, UniProt P27361); assay: as above; settings: increasing concentrations
# T3 construct: with increasing concentrations of exemplary compound 50 and 46 in MDA-MB-231 cells; endogenous in cells; host or cells: MDA-MB-231
# T3 sequence (P27361 whole entry): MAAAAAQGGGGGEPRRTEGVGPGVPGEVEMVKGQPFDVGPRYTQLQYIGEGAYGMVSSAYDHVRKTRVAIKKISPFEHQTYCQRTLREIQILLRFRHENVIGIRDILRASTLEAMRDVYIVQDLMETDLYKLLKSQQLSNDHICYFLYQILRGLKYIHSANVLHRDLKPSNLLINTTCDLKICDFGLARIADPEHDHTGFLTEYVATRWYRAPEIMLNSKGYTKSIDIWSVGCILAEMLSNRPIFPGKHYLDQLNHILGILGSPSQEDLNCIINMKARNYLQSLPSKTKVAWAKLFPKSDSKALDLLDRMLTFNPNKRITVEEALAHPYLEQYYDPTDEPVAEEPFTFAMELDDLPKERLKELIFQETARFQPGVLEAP
# Source text: as §3, §4, §5
# p38β = molecular target: T4, p38β (Homo sapiens, UniProt Q15759); assay: as above; settings: increasing concentrations
# T4 construct: with increasing concentrations of exemplary compound 50 and 46 in MDA-MB-231 cells; endogenous in cells; host or cells: MDA-MB-231
# T4 sequence (Q15759 whole entry): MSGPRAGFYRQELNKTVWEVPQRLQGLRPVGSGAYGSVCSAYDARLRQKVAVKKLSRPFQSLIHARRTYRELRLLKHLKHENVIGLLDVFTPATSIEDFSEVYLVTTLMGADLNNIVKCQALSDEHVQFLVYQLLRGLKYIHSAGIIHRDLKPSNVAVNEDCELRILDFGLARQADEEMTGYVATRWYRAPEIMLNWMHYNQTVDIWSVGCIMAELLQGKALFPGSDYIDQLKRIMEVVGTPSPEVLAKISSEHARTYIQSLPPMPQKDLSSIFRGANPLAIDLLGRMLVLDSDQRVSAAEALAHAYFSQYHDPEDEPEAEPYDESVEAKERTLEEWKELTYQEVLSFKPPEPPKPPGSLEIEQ
# Source text: as §3, §4, §5
# ERK2 = molecular target: T5, ERK2 (Homo sapiens, UniProt P28482); assay: as above; settings: increasing concentrations
# T5 construct: with increasing concentrations of exemplary compound 50 and 46 in MDA-MB-231 cells; endogenous in cells; host or cells: MDA-MB-231
# T5 sequence (P28482 whole entry): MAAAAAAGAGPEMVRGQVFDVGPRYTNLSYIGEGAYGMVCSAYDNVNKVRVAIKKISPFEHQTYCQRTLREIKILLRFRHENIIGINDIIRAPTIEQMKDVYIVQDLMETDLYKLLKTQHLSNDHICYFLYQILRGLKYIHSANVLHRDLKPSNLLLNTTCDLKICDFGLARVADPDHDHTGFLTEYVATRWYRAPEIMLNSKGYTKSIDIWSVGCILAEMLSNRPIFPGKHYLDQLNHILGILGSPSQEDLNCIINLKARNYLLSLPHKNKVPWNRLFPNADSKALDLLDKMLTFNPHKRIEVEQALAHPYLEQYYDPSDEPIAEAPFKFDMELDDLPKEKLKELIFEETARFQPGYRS
# Source text: as §3, §4, §5
# JNK2 = assay: as above; settings: increasing concentrations
# Source text: as §3, §4, §5
# p38δ = molecular target: T6, p38δ (Homo sapiens, UniProt O15264); assay: Cellular assay of target protein degradation (MDA-MB-231 cells, ELISA); settings: for DC50: read-out: p38δDC50/nM [MDA-MB-231]
# T6 construct: endogenous in cells; host or cells: MDA-MB-231 (intact cells for degradation; cleared cell lysate for CETSA)
# T6 sequence (O15264 1-365): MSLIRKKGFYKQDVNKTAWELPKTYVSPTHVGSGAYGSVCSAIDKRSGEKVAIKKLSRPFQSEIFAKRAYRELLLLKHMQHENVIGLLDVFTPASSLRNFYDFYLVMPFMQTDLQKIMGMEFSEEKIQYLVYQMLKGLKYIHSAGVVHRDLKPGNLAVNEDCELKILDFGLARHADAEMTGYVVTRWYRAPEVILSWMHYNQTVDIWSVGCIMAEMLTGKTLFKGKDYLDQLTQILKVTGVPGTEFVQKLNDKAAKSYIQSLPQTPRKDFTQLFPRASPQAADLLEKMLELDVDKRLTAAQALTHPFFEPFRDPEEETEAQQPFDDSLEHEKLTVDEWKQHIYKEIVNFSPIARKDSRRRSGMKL
# Procedure: as §1, §2
# T1 sequence (P08581 25-1390): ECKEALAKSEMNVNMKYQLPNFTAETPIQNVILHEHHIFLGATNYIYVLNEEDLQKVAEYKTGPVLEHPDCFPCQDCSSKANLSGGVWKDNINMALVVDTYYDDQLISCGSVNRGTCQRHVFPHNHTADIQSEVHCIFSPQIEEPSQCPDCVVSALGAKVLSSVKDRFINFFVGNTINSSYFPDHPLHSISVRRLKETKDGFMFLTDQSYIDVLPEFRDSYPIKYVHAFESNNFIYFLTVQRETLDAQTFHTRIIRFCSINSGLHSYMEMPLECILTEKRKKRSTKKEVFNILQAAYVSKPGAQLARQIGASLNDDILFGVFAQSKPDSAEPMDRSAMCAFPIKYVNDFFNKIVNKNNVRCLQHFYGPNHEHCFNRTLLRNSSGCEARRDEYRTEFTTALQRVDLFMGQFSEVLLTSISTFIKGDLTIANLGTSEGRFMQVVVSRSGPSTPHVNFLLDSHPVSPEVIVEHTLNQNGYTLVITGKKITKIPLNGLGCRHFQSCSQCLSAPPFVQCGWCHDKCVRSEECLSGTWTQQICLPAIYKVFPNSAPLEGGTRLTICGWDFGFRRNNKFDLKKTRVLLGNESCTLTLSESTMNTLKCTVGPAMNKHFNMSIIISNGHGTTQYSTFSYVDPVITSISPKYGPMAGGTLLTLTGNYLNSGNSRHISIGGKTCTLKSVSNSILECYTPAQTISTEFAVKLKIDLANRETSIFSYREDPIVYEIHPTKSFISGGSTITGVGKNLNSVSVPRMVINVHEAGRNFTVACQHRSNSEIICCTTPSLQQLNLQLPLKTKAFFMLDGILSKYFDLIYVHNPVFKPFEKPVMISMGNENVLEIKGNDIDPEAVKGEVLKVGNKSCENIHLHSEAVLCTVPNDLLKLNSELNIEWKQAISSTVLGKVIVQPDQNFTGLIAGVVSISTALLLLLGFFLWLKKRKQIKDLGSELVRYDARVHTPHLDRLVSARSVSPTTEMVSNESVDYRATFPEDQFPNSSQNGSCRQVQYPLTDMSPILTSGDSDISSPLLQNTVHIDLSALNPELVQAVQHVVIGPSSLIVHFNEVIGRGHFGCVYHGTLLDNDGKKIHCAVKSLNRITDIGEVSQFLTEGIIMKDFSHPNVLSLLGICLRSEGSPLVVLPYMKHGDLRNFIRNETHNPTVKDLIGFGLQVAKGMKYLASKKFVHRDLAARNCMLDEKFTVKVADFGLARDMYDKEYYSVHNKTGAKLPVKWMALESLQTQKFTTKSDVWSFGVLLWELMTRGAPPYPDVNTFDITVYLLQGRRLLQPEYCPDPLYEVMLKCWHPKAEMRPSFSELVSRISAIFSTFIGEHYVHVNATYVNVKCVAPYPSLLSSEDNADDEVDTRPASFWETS
c-Met protein degradation (dose response) (cMET; ELISA),SMILES,degradation of p38γ (p38γ),degradation of JNK1 (JNK1),degradation of ERK1 (ERK1),degradation of p38β (p38β),degradation of ERK2 (ERK2),degradation of JNK2 (JNK2),Dmax (p38δ) [%],DC50 (p38δ) [nM],DC50 (cMET) [nM],Dmax (cMET) [%]
significant targeted degradation,COc1cc2c(Oc3ccc(NC(=O)C4(C(=O)Nc5ccc(F)cc5)CC4)cc3F)ccnc2cc1OCCCOCCCOCCC(=O)N[C@H](C(=O)N1C[C@H](O)C[C@H]1C(=O)NCc1ccc(-c2scnc2C)cc1)C(C)(C)C [Example 1],,,,,,,,,,
,COc1cc2c(Oc3ccc(NC(=O)C4(C(=O)Nc5ccc(F)cc5)CC4)cc3F)ccnc2cc1OCCOCCOCCOc1cc(-c2scnc2C)ccc1CNC(=O)[C@@H]1C[C@@H](O)CN1C(=O)[C@H](C(C)C)N1Cc2ccccc2C1=O [compound 46],lack of degradation,lack of degradation,lack of degradation,lack of degradation,lack of degradation,lack of degradation,93,84.9,,
,"COc1cc2c(Oc3ccc(NC(=O)C4(C(=O)Nc5ccc(F)cc5)CC4)cc3F)ccnc2cc1OCCCCOCCCCOCC(=O)N[C@H](C(=O)N1C[C@H](O)C[C@H]1C(=O)NCc1ccc(-c2scnc2C)cc1)C(C)(C)C [compound 50, N-(3-fluoro-4-((7-(4-(4-(2-(((S)-1-((2S,4R)-4-hydroxy-2-((4-(4-methylthiazol-5-yl)benzyl)carbamoyl)pyrrolidin-1-yl)-3,3-dimethyl-1-oxobutan-2-yl)amino)-2-oxoethoxy)butoxy)buto-xy)-6-methoxyquinolin-4-yl)oxy)phenyl)-N-(4-fluorophenyl)cyclopropane-1,1-dicarboxa-mide]",lack of degradation,lack of degradation,lack of degradation,lack of degradation,lack of degradation,lack of degradation,18,> 5000,36,88
